Laboratory results published in patent US8183201B2 (priority 2006, dated 2012).

What was measured:
Leptin = molecular target: T1, Leptin (Homo sapiens, UniProt P48357); type: binding
T1 construct: MDS Pharma services, Taipei, Taiwan (contract assay)
T1 sequence (P48357 22-1165): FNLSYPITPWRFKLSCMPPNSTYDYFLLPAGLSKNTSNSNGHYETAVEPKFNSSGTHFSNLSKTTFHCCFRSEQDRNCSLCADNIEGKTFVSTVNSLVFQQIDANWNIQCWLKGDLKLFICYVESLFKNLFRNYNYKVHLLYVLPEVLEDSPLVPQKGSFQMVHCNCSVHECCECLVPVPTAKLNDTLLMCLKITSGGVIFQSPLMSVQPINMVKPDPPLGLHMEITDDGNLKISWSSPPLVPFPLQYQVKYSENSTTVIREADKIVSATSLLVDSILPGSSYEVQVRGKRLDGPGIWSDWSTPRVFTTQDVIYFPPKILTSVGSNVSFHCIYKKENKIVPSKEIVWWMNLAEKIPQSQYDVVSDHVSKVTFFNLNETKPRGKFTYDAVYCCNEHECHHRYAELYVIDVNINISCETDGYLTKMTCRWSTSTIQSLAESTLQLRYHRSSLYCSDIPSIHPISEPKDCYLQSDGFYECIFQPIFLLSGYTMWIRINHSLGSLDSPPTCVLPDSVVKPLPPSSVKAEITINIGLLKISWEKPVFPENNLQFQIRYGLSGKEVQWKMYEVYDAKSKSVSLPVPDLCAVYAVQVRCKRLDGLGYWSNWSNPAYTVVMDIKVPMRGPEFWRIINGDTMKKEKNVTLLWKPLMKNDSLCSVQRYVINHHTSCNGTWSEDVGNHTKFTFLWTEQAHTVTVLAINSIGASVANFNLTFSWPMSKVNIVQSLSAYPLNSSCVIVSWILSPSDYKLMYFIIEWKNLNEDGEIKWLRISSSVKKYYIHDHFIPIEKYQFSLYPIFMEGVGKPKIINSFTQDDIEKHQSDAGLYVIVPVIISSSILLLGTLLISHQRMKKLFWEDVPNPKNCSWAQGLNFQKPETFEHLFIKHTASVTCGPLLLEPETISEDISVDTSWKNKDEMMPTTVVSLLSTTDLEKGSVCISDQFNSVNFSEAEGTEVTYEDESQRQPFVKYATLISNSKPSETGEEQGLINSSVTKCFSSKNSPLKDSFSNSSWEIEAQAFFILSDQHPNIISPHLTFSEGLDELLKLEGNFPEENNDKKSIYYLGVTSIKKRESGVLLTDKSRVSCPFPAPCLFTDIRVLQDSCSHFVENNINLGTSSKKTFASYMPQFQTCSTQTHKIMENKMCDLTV

[1] = system: ovariectomized (OVX) rats; settings: rat, in vivo, po, 1.5 mg/kg
[2] = system: human breast cancer MDA-MB-231 cells; settings: mouse, in vivo
VEGF = type: binding
integrin α5β1 = molecular target: T2, integrin α5β1 (Homo sapiens, UniProt P05556+P08648); type: cell-based
T2 construct: Human erythroleukemia K562 cells were purchased from ATCC; host or cells: K562

integrin αIIbβ3 = molecular target: T3, integrin αIIbβ3 (Homo sapiens, UniProt P05106+P08514); type: cell-based
T3 construct: host or cells: CHO (CHO-αIIbβ3)

Calcitonin = molecular target: T4, Calcitonin (Homo sapiens, UniProt P30988); type: binding
T4 construct: MDS Pharma services, Taipei, Taiwan (contract assay)
T4 sequence (P30988 25-474): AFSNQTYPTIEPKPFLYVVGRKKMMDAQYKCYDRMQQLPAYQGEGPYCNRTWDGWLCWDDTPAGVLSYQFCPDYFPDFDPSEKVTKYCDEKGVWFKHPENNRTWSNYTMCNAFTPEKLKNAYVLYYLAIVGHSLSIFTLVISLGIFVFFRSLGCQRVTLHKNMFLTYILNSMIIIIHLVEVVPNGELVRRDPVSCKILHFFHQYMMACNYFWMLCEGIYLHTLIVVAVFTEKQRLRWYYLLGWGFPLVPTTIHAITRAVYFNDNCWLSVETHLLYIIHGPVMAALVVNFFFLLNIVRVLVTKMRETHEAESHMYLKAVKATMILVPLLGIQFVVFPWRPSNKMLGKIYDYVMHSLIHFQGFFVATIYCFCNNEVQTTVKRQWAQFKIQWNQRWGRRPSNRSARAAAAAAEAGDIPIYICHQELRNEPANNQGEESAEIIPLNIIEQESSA

TGF-β = type: binding
[3] = system: hypoxic-induced angiogenesis; parameters: species or system mice; settings: mouse, in vivo
[4] = system: Human prostate adenocarcinoma PC-3 cells; parameters: species or system SCID mice; settings: mouse, in vivo
Insulin = molecular target: T5, Insulin (Rattus norvegicus, UniProt P15127); type: binding
T5 construct: MDS Pharma services, Taipei, Taiwan (contract assay)

Endothelin ETA = molecular target: T6, Endothelin ETA (Homo sapiens, UniProt P25101); type: binding
T6 construct: MDS Pharma services, Taipei, Taiwan (contract assay)
T6 sequence (P25101 21-427): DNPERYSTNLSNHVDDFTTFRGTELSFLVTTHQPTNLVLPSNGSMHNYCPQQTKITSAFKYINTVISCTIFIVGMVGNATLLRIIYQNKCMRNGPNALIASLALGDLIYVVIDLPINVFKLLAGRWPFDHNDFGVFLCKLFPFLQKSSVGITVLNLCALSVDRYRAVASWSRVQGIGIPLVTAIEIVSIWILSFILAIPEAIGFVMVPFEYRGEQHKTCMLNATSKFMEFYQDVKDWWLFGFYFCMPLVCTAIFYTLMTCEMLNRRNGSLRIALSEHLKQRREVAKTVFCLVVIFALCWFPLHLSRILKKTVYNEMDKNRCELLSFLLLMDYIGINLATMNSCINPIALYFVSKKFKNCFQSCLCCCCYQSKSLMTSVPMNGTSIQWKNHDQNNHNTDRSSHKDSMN

[5] = mouse, in vivo, iv, 30 mg/kg
TNF = type: binding

T2 sequence (P08648 42-894 limits assumed): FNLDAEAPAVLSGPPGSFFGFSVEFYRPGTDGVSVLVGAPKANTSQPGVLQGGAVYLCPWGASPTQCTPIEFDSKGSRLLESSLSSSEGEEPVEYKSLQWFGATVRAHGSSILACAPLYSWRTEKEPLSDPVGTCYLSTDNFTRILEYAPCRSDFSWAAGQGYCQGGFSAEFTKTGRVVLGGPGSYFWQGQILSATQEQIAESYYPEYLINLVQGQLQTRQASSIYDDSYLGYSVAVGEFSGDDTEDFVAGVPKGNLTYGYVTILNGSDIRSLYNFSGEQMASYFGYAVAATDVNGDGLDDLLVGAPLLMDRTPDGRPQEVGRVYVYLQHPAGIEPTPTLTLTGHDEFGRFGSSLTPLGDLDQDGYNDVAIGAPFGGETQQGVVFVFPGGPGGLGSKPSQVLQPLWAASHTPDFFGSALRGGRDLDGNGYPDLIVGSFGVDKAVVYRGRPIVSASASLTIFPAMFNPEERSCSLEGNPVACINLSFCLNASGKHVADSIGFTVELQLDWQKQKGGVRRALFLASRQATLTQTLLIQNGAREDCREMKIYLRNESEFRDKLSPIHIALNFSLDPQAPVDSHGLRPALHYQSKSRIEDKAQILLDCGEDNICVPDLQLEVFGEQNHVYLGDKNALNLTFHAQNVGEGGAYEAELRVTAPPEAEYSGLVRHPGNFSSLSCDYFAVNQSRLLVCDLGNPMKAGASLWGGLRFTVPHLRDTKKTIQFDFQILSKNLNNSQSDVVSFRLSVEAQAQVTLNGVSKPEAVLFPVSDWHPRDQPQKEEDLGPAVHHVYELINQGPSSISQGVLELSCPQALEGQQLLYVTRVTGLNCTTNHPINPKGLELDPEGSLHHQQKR
T2 sequence (P08648 895-1049 partner limits assumed): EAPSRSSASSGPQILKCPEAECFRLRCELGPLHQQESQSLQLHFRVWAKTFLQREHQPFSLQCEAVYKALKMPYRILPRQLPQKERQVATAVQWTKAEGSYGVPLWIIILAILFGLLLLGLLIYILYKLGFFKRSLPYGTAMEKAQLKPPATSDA
T2 sequence (P05556 21-798): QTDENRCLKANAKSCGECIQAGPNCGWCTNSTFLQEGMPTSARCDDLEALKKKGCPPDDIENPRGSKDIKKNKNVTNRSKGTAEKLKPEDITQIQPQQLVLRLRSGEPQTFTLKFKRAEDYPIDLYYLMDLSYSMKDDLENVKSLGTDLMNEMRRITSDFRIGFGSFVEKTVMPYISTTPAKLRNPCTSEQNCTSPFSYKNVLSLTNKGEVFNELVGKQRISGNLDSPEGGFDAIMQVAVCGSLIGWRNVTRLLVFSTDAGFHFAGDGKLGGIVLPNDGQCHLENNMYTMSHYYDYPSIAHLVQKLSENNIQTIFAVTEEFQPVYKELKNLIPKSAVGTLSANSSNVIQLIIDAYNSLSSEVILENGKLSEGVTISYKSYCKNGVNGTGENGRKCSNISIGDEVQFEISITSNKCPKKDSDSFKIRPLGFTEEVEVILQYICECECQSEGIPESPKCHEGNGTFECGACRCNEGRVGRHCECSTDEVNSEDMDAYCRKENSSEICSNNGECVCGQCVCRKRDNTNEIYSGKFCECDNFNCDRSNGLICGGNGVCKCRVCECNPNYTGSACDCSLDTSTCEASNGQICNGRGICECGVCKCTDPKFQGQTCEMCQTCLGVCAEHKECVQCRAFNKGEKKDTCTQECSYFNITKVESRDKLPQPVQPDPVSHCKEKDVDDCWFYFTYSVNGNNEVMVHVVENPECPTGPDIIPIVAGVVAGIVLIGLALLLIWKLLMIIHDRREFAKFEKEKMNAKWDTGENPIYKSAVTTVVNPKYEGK
T5 sequence (P15127 27-1383): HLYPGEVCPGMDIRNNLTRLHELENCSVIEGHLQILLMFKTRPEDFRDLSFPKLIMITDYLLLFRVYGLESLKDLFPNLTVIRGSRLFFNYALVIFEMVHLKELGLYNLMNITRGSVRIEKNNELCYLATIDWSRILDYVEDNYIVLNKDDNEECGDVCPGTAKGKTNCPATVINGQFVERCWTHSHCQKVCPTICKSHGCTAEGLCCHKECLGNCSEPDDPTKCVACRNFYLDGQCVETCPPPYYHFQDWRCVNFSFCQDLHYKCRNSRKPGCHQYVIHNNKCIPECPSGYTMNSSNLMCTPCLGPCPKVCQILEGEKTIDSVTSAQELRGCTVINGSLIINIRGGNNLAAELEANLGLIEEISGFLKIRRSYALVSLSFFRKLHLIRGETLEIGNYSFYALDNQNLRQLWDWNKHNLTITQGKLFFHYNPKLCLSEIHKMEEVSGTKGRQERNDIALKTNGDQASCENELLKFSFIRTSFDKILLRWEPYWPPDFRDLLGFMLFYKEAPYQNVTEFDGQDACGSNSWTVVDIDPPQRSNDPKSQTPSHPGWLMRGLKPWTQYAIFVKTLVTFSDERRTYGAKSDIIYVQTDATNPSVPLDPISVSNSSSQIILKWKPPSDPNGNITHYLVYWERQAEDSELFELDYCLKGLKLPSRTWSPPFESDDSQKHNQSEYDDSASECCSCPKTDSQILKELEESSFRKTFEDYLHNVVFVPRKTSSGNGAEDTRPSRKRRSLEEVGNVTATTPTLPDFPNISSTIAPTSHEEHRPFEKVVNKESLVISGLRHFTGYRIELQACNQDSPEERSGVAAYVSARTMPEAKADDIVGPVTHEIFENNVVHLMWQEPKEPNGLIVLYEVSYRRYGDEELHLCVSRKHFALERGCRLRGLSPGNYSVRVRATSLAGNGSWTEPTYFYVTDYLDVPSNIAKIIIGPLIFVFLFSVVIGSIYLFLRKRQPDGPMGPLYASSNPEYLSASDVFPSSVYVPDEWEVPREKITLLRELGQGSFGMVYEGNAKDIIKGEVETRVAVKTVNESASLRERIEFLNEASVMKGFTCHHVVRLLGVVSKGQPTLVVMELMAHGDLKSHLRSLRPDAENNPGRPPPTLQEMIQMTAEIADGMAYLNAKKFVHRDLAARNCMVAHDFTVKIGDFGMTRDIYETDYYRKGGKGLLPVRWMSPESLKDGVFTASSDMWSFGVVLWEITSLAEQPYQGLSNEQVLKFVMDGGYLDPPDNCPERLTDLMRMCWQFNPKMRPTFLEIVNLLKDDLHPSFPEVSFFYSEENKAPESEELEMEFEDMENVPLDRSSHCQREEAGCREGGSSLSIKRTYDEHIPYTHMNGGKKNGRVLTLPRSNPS

RD: rhodostomin variant having a RGD motif variant ^48PRLDMP^53, SEQ ID NO: 36
Inhibition, Leptin (Leptin): 1% | BMC, Femur [1]: 0.441 ± 0.018 g | BMC, Tibia [1]: 0.299 ± 0.011 g | BMD, Femur [1]: 0.135 ± 0.004 g/cm^2 | BMD, Tibia [1]: 0.113 ± 0.009 g/cm^2 | Bone length, Femur [1]: 3.71 ± 0.06 mm | Bone length, Tibia [1]: 4.01 ± 0.03 mm | Bone volume [1]: 16.3 ± 2.7 % | Wet weight, Femur [1]: 985.3 ± 9.8 mg | Wet weight, Tibia [1]: 749 ± 20.1 mg | ovariectomy-induced increase in osteoclast activity (serum C-terminal telopeptide of type-I collagen) [1]: reversed the ovariectomy-induced increase in osteoclast activity | MDA-MB-231-induced tumor growth in bone [2]: inhibited MDA-MB-231-induced increase in tumor growth in bone | blood counts of RBC, WBC and platelet [2]: did not affect the blood counts of RBC, WBC and platelet | tumor-induced hypercalcemia [2]: prevented | tumor-induced increase in osteoclast activity [2]: prevented the tumor-induced increase in osteoclast activity | Inhibition, VEGF (VEGF): −14% | increase of IC50 in inhibition of integrin α5β1 as compared to Rho (integrin α5β1): > 10 fold | increase of IC50 in inhibition of integrin αIIbβ3 as compared to Rho (integrin αIIbβ3): more than 104 fold | Inhibition, Calcitonin (Calcitonin): 4% | Inhibition, TGF-β (TGF-β): 14% | reduction of angiogenesis (blood vessel profiles in the inner retina) compared to vehicle ROP group [3]: about 46% | PC-3 tumor-induced osteolysis (radiographs) [4]: inhibited osteolysis | inhibition in tumor cell-induced swelling in hind legs [4]: 43.8±4.1% | tumor-induced decrease in body weight [4]: prevented the loss of body weight | tumor-induced increase in C-terminal telopeptides of type-I collagen [4]: inhibited a tumor-induced increase in C-terminal telopeptides | tumor-induced increase in the serum calcium concentration (hypercalcemia) ([4]; 1.5 mg/kg): inhibited a tumor-induced increase in the serum calcium concentration | tumor growth in legs (in words) ([4]; sc, 1.5 mg/kg): inhibited tumor growth | Inhibition, Insulin (Insulin): −6% | Inhibition, Endothelin ETA (Endothelin ETA): 26% | survival of mice [5]: did not affect the survival of mice | Inhibition, TNF (TNF): 4%
